Activity calls are given as the source filed them. The rule behind the calls is not given here.
Columns and labels:
Mus musculus [1] = assay: Anticonvulsant activity in ip dosed F-1 albino mouse assessed as protection against 32 mA current-induced seizure pretreated at 0.5 to 2 hrs by maximal electroshock seizure test; assay type: functional; conditions: F-1, ip
[2] = Neurotoxicity in F-1 albino mouse at 30 mg/kg, ip after 0.5 hrs by rotarod test; assay type: toxicity, organism-based; conditions: in vivo
[3] = Neurotoxicity in F-1 albino mouse at 30 mg/kg, ip after 2 hrs by rotarod test; assay type: toxicity, organism-based; conditions: in vivo
Mus musculus [4] = assay: Anticonvulsant activity in F-1 albino mouse assessed as protection against 32 mA current-induced seizure at 300 mg/kg, ip pretreated at 2 hrs by maximal electroshock seizure test; assay type: functional, organism-based
Mus musculus [5] = assay: Anticonvulsant activity in F-1 albino mouse assessed as protection against 32 mA current-induced seizure at 100 mg/kg, ip pretreated at 0.5 hrs by maximal electroshock seizure test; assay type: functional, organism-based
Mus musculus [6] = assay: Anticonvulsant activity in F-1 albino mouse assessed as protection against 32 mA current-induced seizure at 300 mg/kg, ip pretreated at 0.5 hrs before current challenge by 6 Hz psychomotor seizure test; assay type: functional, organism-based
Mus musculus [7] = assay: Anticonvulsant activity in F-1 albino mouse assessed as protection against 32 mA current-induced seizure at 100 mg/kg, ip pretreated at 2 hrs by maximal electroshock seizure test; assay type: functional, organism-based
[8] = Neurotoxicity in F-1 albino mouse at 300 mg/kg, ip after 2 hrs by rotarod test; assay type: toxicity, organism-based; conditions: in vivo
[9] = Neurotoxicity in F-1 albino mouse at 100 mg/kg, ip after 0.5 hrs by rotarod test; assay type: toxicity, organism-based; conditions: in vivo
[10] = Neurotoxicity in F-1 albino mouse at 100 mg/kg, ip after 2 hrs by rotarod test; assay type: toxicity, organism-based; conditions: in vivo
Mus musculus [11] = assay: Anticonvulsant activity in F-1 albino mouse assessed as protection against 32 mA current-induced seizure at 300 mg/kg, ip pretreated at 0.5 hrs by maximal electroshock seizure test; assay type: functional, organism-based
Mus musculus [12] = assay: Anticonvulsant activity in F-1 albino mouse assessed as protection against 32 mA current-induced seizure at 300 mg/kg, ip pretreated at 2 hrs before current challenge by 6 Hz psychomotor seizure test; assay type: functional, organism-based
Mus musculus [13] = assay: Anticonvulsant activity in F-1 albino mouse assessed as protection against 32 mA current-induced seizure at 30 mg/kg, ip pretreated at 0.5 hrs by maximal electroshock seizure test; assay type: functional, organism-based
[14] = Neurotoxicity in F-1 albino mouse at 300 mg/kg, ip after 0.5 hrs by rotarod test; assay type: toxicity, organism-based; conditions: in vivo
Mus musculus [15] = assay: Anticonvulsant activity in F-1 albino mouse assessed as protection against 32 mA current-induced seizure at 30 mg/kg, ip pretreated at 2 hrs by maximal electroshock seizure test; assay type: functional, organism-based
Mus musculus [16] = assay: Anticonvulsant activity in F-1 albino mouse assessed as protection against 32 mA current-induced seizure at 30 mg/kg, ip pretreated at 0.5 hrs before current challenge by 6 Hz psychomotor seizure test; assay type: functional, organism-based
Mus musculus [17] = assay: Anticonvulsant activity in F-1 albino mouse assessed as protection against 32 mA current-induced seizure at 30 mg/kg, ip pretreated at 2 hrs before current challenge by 6 Hz psychomotor seizure test; assay type: functional, organism-based
Mus musculus [18] = assay: Anticonvulsant activity in F-1 albino mouse assessed as protection against 32 mA current-induced seizure at 100 mg/kg, ip pretreated at 2 hrs before current challenge by 6 Hz psychomotor seizure test; assay type: functional, organism-based
Mus musculus [19] = assay: Anticonvulsant activity in F-1 albino mouse assessed as protection against 32 mA current-induced seizure at 100 mg/kg, ip pretreated at 0.5 hrs before current challenge by 6 Hz psychomotor seizure test; assay type: functional, organism-based

SMILES	ED50 (Mus musculus [1]) [mg/kg]	Activity [2]	Activity [3]	Activity (Mus musculus [4])	Activity (Mus musculus [5])	Activity (Mus musculus [6])	Activity (Mus musculus [7])	Activity [8]	Activity [9]	Activity [10]	Activity (Mus musculus [11])	Activity (Mus musculus [12])	Activity (Mus musculus [13])	Activity [14]	Activity (Mus musculus [15])	Activity (Mus musculus [16])	Activity (Mus musculus [17])	Activity (Mus musculus [18])	Activity (Mus musculus [19])
NC(=O)N1c2ccccc2C=Cc2ccccc21 [CARBAMAZEPINE]	28.2	–	–	–	–	–	–	–	–	–	–	–	–	–	–	–	–	–	–
O=C1C=C(Nc2ccc(Cl)cc2)CC(C(F)(F)F)C1 (configuration not stated)	62.4	Non-Toxic	Non-Toxic	–	–	–	–	–	–	–	–	–	–	–	–	–	–	–	–
O=C1C=C(NCc2ccc(F)c(C(F)(F)F)c2)CC(C(F)(F)F)C1 (configuration not stated)	23.5	Non-Toxic	Non-Toxic	inactive	inactive	Active	inactive	Non-Toxic	Non-Toxic	Non-Toxic	inactive	Active	inactive	Non-Toxic	inactive	–	–	–	–
O=C1C=C(NCc2cccc(C(F)(F)F)c2)CC(C(F)(F)F)C1 (configuration not stated)	–	Non-Toxic	Non-Toxic	inactive	inactive	–	inactive	Non-Toxic	Non-Toxic	Non-Toxic	–	–	inactive	Non-Toxic	inactive	inactive	inactive	–	–
O=C1C=C(Nc2ccc(Br)cc2C(=O)O)CC(C(F)(F)F)C1 (configuration not stated)	–	Non-Toxic	Non-Toxic	inactive	inactive	–	inactive	Non-Toxic	Non-Toxic	Non-Toxic	–	–	inactive	Non-Toxic	inactive	inactive	inactive	inactive	–
COc1ccc(CNC2=CC(=O)CC(C(F)(F)F)C2)cc1 (configuration not stated)	–	Non-Toxic	Non-Toxic	inactive	inactive	–	inactive	Non-Toxic	Non-Toxic	Non-Toxic	inactive	–	inactive	Non-Toxic	inactive	inactive	inactive	–	–
O=C1C=C(NCc2cccc(OC(F)(F)F)c2)CC(C(F)(F)F)C1 (configuration not stated)	–	Non-Toxic	Non-Toxic	Active	inactive	–	inactive	Non-Toxic	Non-Toxic	Non-Toxic	Active	–	–	Non-Toxic	inactive	–	inactive	inactive	inactive
O=C1C=C(NCc2cc(C(F)(F)F)cc(C(F)(F)F)c2)CC(C(F)(F)F)C1 (configuration not stated)	–	Non-Toxic	Non-Toxic	inactive	inactive	–	inactive	Non-Toxic	Non-Toxic	Non-Toxic	inactive	–	inactive	Non-Toxic	inactive	–	–	inactive	–
O=C1C=C(NCc2ccc(Br)cc2)CC(C(F)(F)F)C1 (configuration not stated)	–	Non-Toxic	Non-Toxic	inactive	inactive	–	inactive	Non-Toxic	Non-Toxic	Non-Toxic	–	–	inactive	Non-Toxic	inactive	–	inactive	inactive	–
O=C1C=C(NCc2cc(F)ccc2F)CC(C(F)(F)F)C1 (configuration not stated)	–	Non-Toxic	Non-Toxic	inactive	inactive	Active	inactive	Non-Toxic	Non-Toxic	Non-Toxic	inactive	Active	inactive	Non-Toxic	inactive	inactive	inactive	inactive	–

Source: ChEMBL document CHEMBL4371027, “Design, synthesis and anticonvulsant evaluation of fluorinated benzyl amino enaminones” (Bioorg Med Chem, 2019)
